Results reported in PMC11521937, “Expression and characterization of pantothenate energy‐coupling factor transporters as an anti‐infective drug target” (Protein Science : A Publication of the Protein Society, 2024).
Read-outs that look alike come from different tables or passages of the source.

Experiments:
S. pneumoniae DSM‐20566 = assay: Galleria mellonella infection model with S. pneumoniae; format: in vivo; settings: S. pneumoniae OD600 1.5, after 3 days
Description: Next, we examined the antibacterial effect of the ECF inhibitors under in vivo conditions by using G. mellonella larvae. This model was adopted based on the work of Alhayek et al. ([2022]) and serves to assess the efficacy of ECF inhibitors against S. pneumoniae induced infection. Larvae were injected with the overnight culture of S. pneumoniae DSM‐20566, incubated for 3 days at 37°C and 5% CO2 without shaking, and survival rates were monitored daily for 3 days (Figure 4).
G. mellonella larvae were used as an in vivo infection model to test selected ECF inhibitors, following the methodology established by Alhayek et al. ([2022]). S. pneumoniae DSM‐20566 was cultured in Todd–Hewitt medium with 0.1% choline at 37°C with 5% CO2 until an OD600 of 1.5 or higher was reached. Larvae were infected by injecting 10 μL of the culture into the left proleg and incubated at 37°C, 5% CO2 for 72–96 h. Survival was monitored daily. Control groups received either PBS or no injection. […]. The larvae used in this study were purchased from VALOMOLIA Company (Strasbourg, France).

[1] = In vitro MTT cytotoxicity assay, A549; format: cell-based, human; settings: human, read-out: Percent (%) cell viability at 100 μM, A549 cells
Description: (§1) In vitro cytotoxicity evaluation […]
(§2) with minor modifications, which will be detailed below.
(§3) To obtain information regarding the toxicity of our compounds, their impact on the viability of human cells was investigated. HepG2 and A549 cells (2 × 10^4 cells per well) were seeded in 96-well, flat-bottomed culture plates in 100 µL culture medium (DMEM containing 10% fetal calve serum, 1% penicillin-streptomycin). Twenty-four hours after seeding the cells, medium was removed and replaced by medium containing test compounds in a final DMSO concentration of 1%. Compounds were tested in duplicates at a single concentration in 1% DMSO/medium. Epirubicin and doxorubicin were used as positive controls in serial dilutions starting from 10 µM, and rifampicin was used as a negative control (at 100 µM). The living cell mass was determined 48 h after treatment with compounds by adding 0.1 volumes of 3-(4,5-dimethylthiazol-2-yl)-2,5-diphenyltetrazolium bromide (MTT) solution (5 mg/mL sterile PBS) (Sigma, St. Louis, MO) to the wells. After incubating the cells for 30 min at 37 °C (atmosphere containing 5% CO2), medium was removed and MTT crystals were dissolved in 75 µL of a solution containing 10% SDS and 0.5% acetic acid in DMSO. The optical density (OD) of the samples was determined photometrically at 570 nm in a PHERAstar Omega plate reader (BMG labtech, Ortenberg, Germany). To obtain percent viability for each sample, their ODs were related to those of DMSO controls. At least two independent measurements were performed for each compound. The calculation of IC50 was performed using the nonlinear regression function of GraphPad Prism 10 (GraphPad Software, San Diego, CA, USA). […]

ECF‐PanT = ECF‐PanT (Streptococcus pneumoniae, UniProt A0A0H2ZPG6+A0ACD7PRR9+Q04HV7+Q97N51); assay: SPR binding to immobilized ECF‐PanT; settings: for Kd: SPR, S. pneumoniae ECF‐PanT, n = 2; for kon: pH 7.5, read-out: k a; for koff: pH 7.5, read-out: k d
Description: (§4) The ECF‐PanT, ECF‐module, and ECF‐FolT2, each bearing a histidine tag, were immobilized on a high‐affinity poly‐nitrilotriacetic acid (poly‐NTA) sensor chip, which was initially activated using NiCl2.
(§5) Additionally, the protein was maintained in the buffer containing 5% (v/v) DMSO. For a more in‐depth description of the procedures, please refer to Appendix S1.
(§6) Surface plasmon resonance (SPR)
(§7) The SPR binding studies were performed using a Reichert 4SPR surface plasmon resonance spectrometer (Reichert Technologies, Buffalo, NY, USA), and medium–density NTA derivatized polycarboxylate hydrogel NiHC200M sensor chips (XanTec Bioanalytics, Düsseldorf, Germany). The experimental procedure involved two rounds of nickel activation and one immobilization step at a […]
(§8) standard protocol as provided by Xantec bioanalytics with a slight modification based on the recombinant proteins. The flow-cell 4 was left blank to serve as a reference.
(§9) The immobilization buffer employed for the immobilization process consisted of 10 mM HEPES with a pH of 7.5, 50 mM NaCl, 50 µM EDTA, and 0.05% DDM without DMSO. Following the immobilization step, for the binding study of the compounds, the running buffer was exchanged for the mentioned buffer with 5% v/v DMSO. This was done to ensure consistency in the percentage of DMSO present in the solutions containing the respective testing inhibitors, as these inhibitors were soluble in the DMSO solvent. By maintaining the same DMSO concentration, we aimed to minimize any potential solvent-related effects on the assay results. All running buffers were filtered and degassed before use.
(§10) The system was initially primed with 5 mM NiCl2 with an association and dissociation time of 2 min for each to activate the NTA sensor chip. Then, the recombinant proteins with a concentration of 200 nM were injected at a flow rate of 10 µL/min for 8 min. Finally, the baseline check with the running […]
(§11) First, the calibration curve for correction of the DMSO effect was prepared; the concentrations were […]
(§12) concentration of DMSO in all the samples was set to 5% v/v DMSO. The samples (200 µL) were loaded on a 96-well plate and were injected at a flow rate of 50 μL/min. Single-cycle kinetics were applied for KD determination. The association time was set to 60 s, and the dissociation phase was recorded for 120 s. For surface regeneration, 0.35 M EDTA (pH 8.5) and 0.1 M NaOH were used. Data processing and […]
(§13) were calculated by sequential subtractions of the corresponding curves obtained from the reference flow cell and the running buffer (blank). SPR responses were expressed in the resonance unit (RU). The KD values were calculated by global fitting of the kinetic curves as well as fitting of the steady state binding responses to a 1:1 Langmuir interaction model.
(§14) The SPR experiments were conducted at least two times, representing independent replicates. The […]
(§15) interactions, are presented in Figure S12 for ECF-PanT, Figure S13 for ECF-FolT2, and Figure S14 for […]

Lactobacillus casei = assay: L. casei whole‐cell uptake assay; format: cell-based; settings: Lacticaseibacillus casei
ECF‐FolT2 = ECF‐FolT2 (Lactobacillus delbrueckii subsp. bulgaricus, UniProt Q1G929+Q1GBI8+Q1GBI9+Q1GBJ0); assay: SPR binding to immobilized ECF‐FolT2; settings: for Kd: n = 2
Sequence of ECF‐FolT2 (Q1GBJ0 whole entry): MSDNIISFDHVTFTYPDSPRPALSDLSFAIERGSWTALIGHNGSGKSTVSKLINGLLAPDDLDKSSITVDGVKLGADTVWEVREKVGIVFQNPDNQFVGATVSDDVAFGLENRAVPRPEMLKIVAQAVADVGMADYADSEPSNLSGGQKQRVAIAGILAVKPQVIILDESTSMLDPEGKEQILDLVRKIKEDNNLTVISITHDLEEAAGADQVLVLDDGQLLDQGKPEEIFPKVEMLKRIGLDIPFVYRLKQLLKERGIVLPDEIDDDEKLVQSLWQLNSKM
Sequence of ECF‐FolT2 (Q1GBI9 whole entry): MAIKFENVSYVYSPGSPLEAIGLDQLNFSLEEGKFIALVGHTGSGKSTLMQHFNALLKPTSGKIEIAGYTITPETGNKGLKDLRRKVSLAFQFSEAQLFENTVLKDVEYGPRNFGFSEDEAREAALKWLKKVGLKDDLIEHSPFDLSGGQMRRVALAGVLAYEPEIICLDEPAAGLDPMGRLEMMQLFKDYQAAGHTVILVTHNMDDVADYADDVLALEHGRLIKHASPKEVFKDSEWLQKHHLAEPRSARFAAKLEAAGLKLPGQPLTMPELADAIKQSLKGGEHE
Sequence of ECF‐FolT2 (Q1GBI8 entry or part of it): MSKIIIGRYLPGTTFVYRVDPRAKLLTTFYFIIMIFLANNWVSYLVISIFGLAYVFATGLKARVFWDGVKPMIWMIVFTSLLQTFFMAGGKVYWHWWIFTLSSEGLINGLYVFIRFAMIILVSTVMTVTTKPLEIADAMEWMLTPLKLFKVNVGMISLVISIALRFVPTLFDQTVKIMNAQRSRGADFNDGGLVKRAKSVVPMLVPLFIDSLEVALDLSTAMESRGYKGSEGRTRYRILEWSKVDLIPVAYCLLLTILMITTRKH
Sequence of ECF‐FolT2 (Q1G929 entry or part of it): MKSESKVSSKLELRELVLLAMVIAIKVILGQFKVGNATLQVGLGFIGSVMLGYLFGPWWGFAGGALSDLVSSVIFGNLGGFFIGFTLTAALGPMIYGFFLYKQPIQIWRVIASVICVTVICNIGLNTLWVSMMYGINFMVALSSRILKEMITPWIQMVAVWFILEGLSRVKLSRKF
Description: as §4, §5, §6, §7, §8, §9, §10, §11, §12, §13, §14, §15

HepG2 cells = assay: In vitro MTT cytotoxicity assay, HepG2; format: cell-based, human; settings: 48 h
Description: as §1, §2, §3

A549 cells = assay: In vitro MTT cytotoxicity assay, A549; format: cell-based, human; settings: 48 h, 100 µM
Description: as §1, §2, §3

[2] = global fit of kinetic curves, read-out: Kinetic, K D
[3] = steady state fit, read-out: Equilibrium, K D
[4] = SPR, L. delbrueckii ECF‐FolT2, global fit of kinetic curves, read-out: Kinetic, K D
[5] = SPR, L. delbrueckii ECF‐FolT2, steady state fit, read-out: Equilibrium, K D
[6] = pH 7.5, SPR, L. delbrueckii ECF‐FolT2, n = 2, read-out: k a
[7] = pH 7.5, SPR, L. delbrueckii ECF‐FolT2, n = 2, read-out: k d
[8] = Equilibrium, K D, steady state fit
[9] = Kinetic, K D, global fit of kinetic curves
[10] = Equilibrium, K D, SPR, L. delbrueckii ECF‐FolT2, steady state fit
[11] = Kinetic, K D, SPR, L. delbrueckii ECF‐FolT2, global fit of kinetic curves

| SMILES | larval survival (S. pneumoniae DSM‐20566; compound at 10 μM) | larval survival (S. pneumoniae DSM‐20566; compound at 50 μM) | viability at 48 h, 100 µM ([1]; A549 cells) [%] | Kd (ECF‐PanT; [2]) [µM] | Kd (ECF‐PanT; [3]) [µM] | kon (ECF‐PanT) [M⁻¹ s⁻¹] | koff (ECF‐PanT) [s⁻¹] | IC50 (Lactobacillus casei) [µM] | Kd (ECF‐FolT2; [4]) [µM] | Kd (ECF‐FolT2; [5]) [µM] | kon (ECF‐FolT2; [6]) [M⁻¹ s⁻¹] | koff (ECF‐FolT2; [7]) [s⁻¹] | viability at 48 h, 100 µM [1] [%] | Kd (ECF‐PanT; [8]) [µM] | Kd (ECF‐PanT; [9]) [µM] | Kd (ECF‐FolT2; [10]) [µM] | Kd (ECF‐FolT2; [11]) [µM] | Percent (%) cell viability at 100 μM, HepG2 cells (HepG2 cells) | Percent (%) cell viability at 100 μM, A549 cells (A549 cells) [%] | further results |
| --- | --- | --- | --- | --- | --- | --- | --- | --- | --- | --- | --- | --- | --- | --- | --- | --- | --- | --- | --- | --- |
| O=C(O)c1cccc(NCc2ccc(-c3ccc(Cl)cc3)o2)c1 [Compound 4] | 40% | 60% | 80 ± 10 | 317 ± 3 | 304 ± 6 | 399 ± 4 | 0.127 ± 0.001 | 321 ± 200 | 353 ± 5 | 340 ± 10 | 325 ± 5 | 0.115 ± 0.001 |  |  |  |  |  |  |  |  |
| CC(C)(C)OC(=O)Nc1ccc(OCc2cccc3ccccc23)cc1C(=O)O [Compound 3] | 60% | 50% |  |  |  | 650 ± 9 | 0.0643 ± 0.0006 |  |  |  |  |  | 86 ± 11 | 96 ± 8 | 99 ± 1 | 128 ± 9 | 132 ± 3 |  |  | kon (ECF‐FolT2; pH 7.5, read-out: k a): 570 ± 10 M⁻¹ s⁻¹; koff (ECF‐FolT2; pH 7.5, read-out: k d): 0.0755 ± 0.0008 s⁻¹ |
| O=C(O)c1cccc(NCc2ccc(-c3ccccc3Cl)o2)c1 [Compound 6] |  |  | 103 ± 7 | 391 ± 6 | 374 ± 6 | 376 ± 6 | 0.147 ± 0.002 | 285 ± 293 | 231 ± 5 | 230 ± 10 | 100000 | 22 ± 3 |  |  |  |  |  | non‐toxic |  |  |
| O=C(O)c1cc(OCc2cccc3ccccc23)ccc1O [Compound 1] |  |  |  |  |  |  |  |  |  |  |  |  | > 100 | 277 ± 5 | 276 ± 4 | 300 ± 20 | 294 ± 6 |  | 111 ± 6 |  |
| O=C(O)c1cc(OCc2ccc(Br)c3ccccc23)ccc1O [Compound 2] | up to 70% | up to 70% |  |  |  |  |  |  |  |  |  |  |  | 170 ± 5 | 172 ± 2 | 190 ± 20 | 185 ± 3 |  | 124 ± 15 |  |
| O=C(O)c1cccc(NCc2ccc(-c3cccc(Cl)c3)o2)c1 [Compound 5] |  |  | 102 ± 17 | 451 ± 8 | 420 ± 10 | 348 ± 7 | 0.157 ± 0.002 | 247 ± 78 | 328 ± 6 | 300 ± 30 | 570 ± 10 | 0.187 ± 0.003 |  |  |  |  |  | non‐toxic |  |  |
